Like-named read-outs stand apart in the source and are kept apart here.
Assays:
human estrogen receptor [1] = molecular target: T1, human estrogen receptor (Homo sapiens, UniProt P03372)
T1 sequence (P03372 1-595): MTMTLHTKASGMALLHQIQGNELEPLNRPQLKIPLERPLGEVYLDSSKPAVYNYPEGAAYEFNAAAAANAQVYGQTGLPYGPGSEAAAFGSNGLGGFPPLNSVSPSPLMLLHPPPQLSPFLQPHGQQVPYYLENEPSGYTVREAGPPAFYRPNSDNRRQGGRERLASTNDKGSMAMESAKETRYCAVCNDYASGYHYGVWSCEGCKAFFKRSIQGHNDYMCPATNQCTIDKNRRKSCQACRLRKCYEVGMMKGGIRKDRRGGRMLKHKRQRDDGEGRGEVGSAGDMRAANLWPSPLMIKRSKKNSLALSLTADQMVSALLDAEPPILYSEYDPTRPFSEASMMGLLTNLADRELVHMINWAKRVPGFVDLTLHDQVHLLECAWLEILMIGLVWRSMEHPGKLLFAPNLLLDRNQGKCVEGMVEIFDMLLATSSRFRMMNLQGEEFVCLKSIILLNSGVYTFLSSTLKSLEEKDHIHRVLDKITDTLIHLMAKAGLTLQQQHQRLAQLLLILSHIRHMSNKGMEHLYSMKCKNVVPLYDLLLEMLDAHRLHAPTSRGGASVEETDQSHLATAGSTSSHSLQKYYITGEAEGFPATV
From the text: (§1) The MCF-7 assay uses MCF-7, clone WS8, cells to measure whether and to what extent a substance induces cell proliferation via estrogen receptor (ER)-mediated pathways.

human estrogen receptor [2] = molecular target: T1, human estrogen receptor; experiment: in vitro estrogenic activity assay correlated to the MCF-7 cell proliferation assay; conditions: suitable in vitro assay whose results are directly correlated to the MCF-7 assay
From the text: as §1

Row | Structure (SMILES) | estrogenic activity (human estrogen receptor [1]) | estrogenic activity (human estrogen receptor [2])
1 | Cc1cc(Cc2cc(C)cc(C(C)(C)C)c2O)c(O)c(C(C)(C)C)c1 [2,2′-methylenebis(4-methyl-6-t-butylphenol)] | do not exhibit appreciable estrogenic activity | 
2 | CC(C)(C)c1cc(O)c(C(C)(C)C)cc1O [2,5-di-t-butylhydroquinone] | do not exhibit appreciable estrogenic activity | 
3 | CC(C)(C)c1cc(Cc2cc(C(C)(C)C)c(O)c(C(C)(C)C)c2)cc(C(C)(C)C)c1O [4,4′-methylenebis(2,6-di-t-butylphenol)] | do not exhibit appreciable estrogenic activity | 
4 | Cc1cc(Cc2cc(C)c(O)c(C)c2)cc(C)c1O [4,4′-methylenebis(2,6-dimethylphenol)] |  | do not exhibit appreciable estrogenic activity
5 | CCCC(c1cc(C(C)(C)C)c(O)cc1C)c1cc(C(C)(C)C)c(O)cc1C [4,4′butylidenebis(2-t-butyl-5-methylphenol)] |  | do not exhibit appreciable estrogenic activity

Reference: patent publication US11667809B2, “Adhesion promoters and compositions for containers and other articles” (SWIMC LLC, priority 2017, dated 2023)
